Data reported in patent publication US20240358668A1, “METHODS AND CO[…] AM[…] CARD[…] USING (R)-2-AMINO-3-PH[…]” (AXSOME THERAPEUTICS, INC., priority 2021, published 2024).
Marks after values point to notes of the source that are not given here.

Experiments:
[1] = system: participants with narcolepsy or OSA; assay: 1-year OLE study: adverse events; format: in vivo, human
Procedure: A 1-year open-label extension (OLE) study was performed with 374 participants to examined whether clinically significant weight loss (≥5%) in this population had favorable effects on biomarkers of cardiovascular risk compared to no such weight loss. The study measured changes in weight and BP (parent study baseline to OLE week 40) and clinical laboratory assessments (OLE baseline to week 40) in participants with narcolepsy (n=124) or OSA (n=250) who received solriamfetol at doses of 75, 150, or 300 mg/d.
Of 374 participants, 96 (25.7%) had ≥5% weight loss; among those without ≥5% weight loss (n=278), 34 (9.1% of total population) had ≥5% weight gain. Demographics were similar in those with and without weight loss (see Table 1 (demographics and baseline characteristics) and Table 2 (additional demographics and baseline characteristics)). […] Participants with weight loss had mean±SD reductions in SBP (−2.6±11.4 mmHg) and DBP (−1.0±9.0 mmHg), whereas participants without weight loss had increases of +0.65±12.5 mmHg and +1.2±8.7 mmHg, respectively (see Table 3 (blood pressure at baseline and week 40), Table 4 (systolic blood pressure (SBP) maximum changes from baseline to week 40), and Table 5 (diastolic blood pressure (DBP) maximum changes from baseline to week 40)). Adverse events are shown in Table 11 (adverse events in ≥5% of Combined Solriamfetol Participants).

[2] = system: adults with EDS associated with OSA; assay: 12-week phase 3 trial in OSA: vital signs, antihypertensive medication use, AEs of hypertension/increased BP; format: in vivo, human
Procedure: An exploratory analysis of data from one 12-week randomized, controlled trial (Schweitzer P K, et al. Am J Respir Crit Care Med. 2019; 199(11):1421-31) and 1 long-term open-label extension (OLE) trial in adults with EDS (Epworth Sleepiness Scale score ≥10) associated with OSA (Malhotra A, et al. Sleep. 2020; 43(2):zsz220) was carried out. Participants with current/prior use of primary OSA therapy (positive airway pressure [PAP], oral pressure therapy, oral appliance, or upper airway stimulation) were eligible, regardless of the level of adherence to primary OSA therapy; participants who had not attempted to use primary OSA therapy were excluded. Adherence to primary OSA therapy was defined as PAP use ≥4 hours/night on ≥70% of nights/week, historical report (with investigator concurrence) of oral appliance use on ≥70% of nights, or effective surgical intervention. Nonadherence to primary OSA therapy was defined as device use at a level lower than specific above, no device use at all, or surgical intervention deemed no longer effective. Participants received placebo or solriamfetol 37.5 (12-week trial only), 75, 150, or 300 mg/day for 12 weeks (12-week trial) or ≤40 weeks (OLE trial). Vital signs, antihypertensive medication use, and adverse events (AEs) were monitored throughout the studies. Baseline demographics, CV comorbidities, and concomitant medications, the percentage of participants who initiated antihypertensive medication use during treatment, and the incidence of and discontinuations due to AEs of hypertension/increased BP were summarized for the safety population (participants who received ≥1 dose of study medication).

[3] = Weight loss <5% at Week 40, 75 mg/d
[4] = Weight loss <5% at Week 40, 150 mg/d
[5] = Weight loss <5% at Week 40, 300 mg/d
[6] = Weight loss <5% at Week 40, all doses
[7] = Weight loss ≥5% at Week 40, 75 mg/d
[8] = Weight loss ≥5% at Week 40, 150 mg/d
[9] = Weight loss ≥5% at Week 40, 300 mg/d
[10] = Weight loss ≥5% at Week 40, all doses

NC(=O)OC[C@H](N)Cc1ccccc1 [Solriamfetol, (R)-2-amino-3-phenylpropyl carbamate]
AE of interest: Decreased appetite [1, 3]: 1(4.8) n(%)
Common AEs: Anxiety [1, 3]: 0 n(%)
Common AEs: Dizziness [1, 3]: 2(9.5) n(%)
Common AEs: Dry mouth [1, 3]: 2(9.5) n(%)
Common AEs: Feeling jittery [1, 3]: 2(9.5) n(%)
Common AEs: Headache [1, 3]: 3(14.3) n(%)
Common AEs: Influenza [1, 3]: 0 n(%)
Common AEs: Insomnia [1, 3]: 4(19.0) n(%)
Common AEs: Nasopharyngitis [1, 3]: 3(14.3) n(%)
Common AEs: Nausea [1, 3]: 0 n(%)
Common AEs: Sinusitis [1, 3]: 1(4.8) n(%)
Common AEs: URTI (Upper Respiratory Tract Infection) [1, 3]: 0 n(%)
AE of interest: Decreased appetite [1, 4]: 5(4.8) n(%)
Common AEs: Anxiety [1, 4]: 10(9.5) n(%)
Common AEs: Dizziness [1, 4]: 2(1.9) n(%)
Common AEs: Dry mouth [1, 4]: 6(5.7) n(%)
Common AEs: Feeling jittery [1, 4]: 7(6.7) n(%)
Common AEs: Headache [1, 4]: 9(8.6) n(%)
Common AEs: Influenza [1, 4]: 3(2.9) n(%)
Common AEs: Insomnia [1, 4]: 14(13.3) n(%)
Common AEs: Nasopharyngitis [1, 4]: 14(13.3) n(%)
Common AEs: Nausea [1, 4]: 12(11.4) n(%)
Common AEs: Sinusitis [1, 4]: 2(1.9) n(%)
Common AEs: URTI (Upper Respiratory Tract Infection) [1, 4]: 6(5.7) n(%)
AE of interest: Decreased appetite [1, 5]: 6(3.9) n(%)
Common AEs: Anxiety [1, 5]: 2(1.3) n(%)
Common AEs: Dizziness [1, 5]: 4(2.6) n(%)
Common AEs: Dry mouth [1, 5]: 5(3.3) n(%)
Common AEs: Feeling jittery [1, 5]: 7(4.6) n(%)
Common AEs: Headache [1, 5]: 15(9.9) n(%)
Common AEs: Influenza [1, 5]: 2(1.3) n(%)
Common AEs: Insomnia [1, 5]: 3 (2.0) n(%)
Common AEs: Nasopharyngitis [1, 5]: 15(9.9) n(%)
Common AEs: Nausea [1, 5]: 8 (5.3) n(%)
Common AEs: Sinusitis [1, 5]: 11(7.2) n(%)
Common AEs: URTI (Upper Respiratory Tract Infection) [1, 5]: 14(9.2) n(%)
AE of interest: Decreased appetite [1, 6]: 12(4.3) n(%)
Common AEs: Anxiety [1, 6]: 12(4.3) n(%)
Common AEs: Dizziness [1, 6]: 8(2.9) n(%)
Common AEs: Dry mouth [1, 6]: 13(4.7) n(%)
Common AEs: Feeling jittery [1, 6]: 16(5.8) n(%)
Common AEs: Headache [1, 6]: 27(9.7) n(%)
Common AEs: Influenza [1, 6]: 5(1.8) n(%)
Common AEs: Insomnia [1, 6]: 21(7.6) n(%)
Common AEs: Nasopharyngitis [1, 6]: 32(11.5) n(%)
Common AEs: Nausea [1, 6]: 20(7.2) n(%)
Common AEs: Sinusitis [1, 6]: 14(5.0) n(%)
Common AEs: URTI (Upper Respiratory Tract Infection) [1, 6]: 20(7.2) n(%)
AE of interest: Decreased appetite [1, 7]: 0 n(%)
Common AEs: Anxiety [1, 7]: 0 n(%)
Common AEs: Dizziness [1, 7]: 0 n(%)
Common AEs: Dry mouth [1, 7]: 1(100) n(%)
Common AEs: Feeling jittery [1, 7]: 0 n(%)
Common AEs: Headache [1, 7]: 0 n(%)
Common AEs: Influenza [1, 7]: 0 n(%)
Common AEs: Insomnia [1, 7]: 0 n(%)
Common AEs: Nasopharyngitis [1, 7]: 0 n(%)
Common AEs: Nausea [1, 7]: 0 n(%)
Common AEs: Sinusitis [1, 7]: 0 n(%)
Common AEs: URTI (Upper Respiratory Tract Infection) [1, 7]: 0 n(%)
AE of interest: Decreased appetite [1, 8]: 0 n(%)
Common AEs: Anxiety [1, 8]: 3(13.6) n(%)
Common AEs: Dizziness [1, 8]: 2(9.1) n(%)
Common AEs: Dry mouth [1, 8]: 1(4.5) n(%)
Common AEs: Feeling jittery [1, 8]: 2(9.1) n(%)
Common AEs: Headache [1, 8]: 5(22.7) n(%)
Common AEs: Influenza [1, 8]: 1(4.5) n(%)
Common AEs: Insomnia [1, 8]: 2(9.1) n(%)
Common AEs: Nasopharyngitis [1, 8]: 0 n(%)
Common AEs: Nausea [1, 8]: 4(18.2) n(%)
Common AEs: Sinusitis [1, 8]: 3(13.6) n(%)
Common AEs: URTI (Upper Respiratory Tract Infection) [1, 8]: 1(4.5) n(%)
AE of interest: Decreased appetite [1, 9]: 2(2.7) n(%)
Common AEs: Anxiety [1, 9]: 3(4.1) n(%)
Common AEs: Dizziness [1, 9]: 3(4.1) n(%)
Common AEs: Dry mouth [1, 9]: 7(9.6) n(%)
Common AEs: Feeling jittery [1, 9]: 1(1.4) n(%)
Common AEs: Headache [1, 9]: 7(9.6) n(%)
Common AEs: Influenza [1, 9]: 5(6.8) n(%)
Common AEs: Insomnia [1, 9]: 5(6.8) n(%)
Common AEs: Nasopharyngitis [1, 9]: 8(11.0) n(%)
Common AEs: Nausea [1, 9]: 3(4.1) n(%)
Common AEs: Sinusitis [1, 9]: 3(4.1) n(%)
Common AEs: URTI (Upper Respiratory Tract Infection) [1, 9]: 3(4.1) n(%)
AE of interest: Decreased appetite [1, 10]: 2(2.1) n(%)
Common AEs: Anxiety [1, 10]: 6(6.3) n(%)
Common AEs: Dizziness [1, 10]: 5(5.2) n(%)
Common AEs: Dry mouth [1, 10]: 9(9.4) n(%)
Common AEs: Feeling jittery [1, 10]: 3(3.1) n(%)
Common AEs: Headache [1, 10]: 12(12.5) n(%)
Common AEs: Influenza [1, 10]: 6(6.3) n(%)
Common AEs: Insomnia [1, 10]: 7(7.3) n(%)
Common AEs: Nasopharyngitis [1, 10]: 8(8.3) n(%)
Common AEs: Nausea [1, 10]: 7(7.3) n(%)
Common AEs: Sinusitis [1, 10]: 6(6.3) n(%)
Common AEs: URTI (Upper Respiratory Tract Infection) [1, 10]: 4(4.2) n(%)
total participants with AEs of hypertension/increased BP ([2]; 12-week study): 10 participants
AE of HTN/increased BP ([2]; 12-week study, 37.5 mg): 0 n (%)
Discontinuation due to AE of HTN/increased BP ([2]; 12-week study, 37.5 mg): 0 n (%)
Initiated anti-HTN ([2]; 12-week study, 37.5 mg): 1 (1.7) n (%)
AE of HTN/increased BP ([2]; 12-week study, 75 mg): 0 n (%)
Discontinuation due to AE of HTN/increased BP ([2]; 12-week study, 75 mg): 0 n (%)
Initiated anti-HTN ([2]; 12-week study, 75 mg): 0 n (%)
AE of HTN/increased BP, (%) ([2]; 12-week study, 150 mg): (4.3) %
Discontinuation due to AE of HTN/increased BP, (%) ([2]; 12-week study, 150 mg): (0.9)^b %
Initiated anti-HTN ([2]; 12-week study, 150 mg): 1 (0.9) n (%)
AE of HTN/increased BP, (%) ([2]; 12-week study, 300 mg): (4.2) %
Discontinuation due to AE of HTN/increased BP ([2]; 12-week study, 300 mg): 0 n (%)
Initiated anti-HTN ([2]; 12-week study, 300 mg): 2 (1.7) n (%)
serious CV AEs ([2]; 12-week trial): no serious CV AEs
